Experiments:
RAW264.7 [1] = test: Antiinflammatory activity in mouse RAW264.7 cells assessed as inhibition of LPS-induced nitirc oxide production pretreated followed by LPS challenge and measured after 24 hrs by Griess assay; type: functional, cell-based
RAW264.7 [2] = test: Cytotoxicity against LPS-stimulated mouse RAW264.7 cells at 6.25 to 100 uM by MTT assay; type: cell-based; details: raw264.7, 100 µM

IC50 (RAW264.7 [1]) | SMILES | Activity (RAW264.7 [2])
2.6 µM | CC(=O)[C@@H]1CC[C@@]2(C)CCC(=O)O[C@@]2(C(C)=O)C1 | Non-Toxic
6.8 µM | CC(=O)[C@]12C=C([C@@](C)(O)CO)CC[C@@]1(C)CC[C@H]2O | Non-Toxic
7.7 µM | CC(=O)[C@@]12C=C([C@](C)(O)CO)CC[C@]1(C)CC[C@@H]2O | Non-Toxic

SMILES | IC50 (RAW264.7 [1]) | Activity (RAW264.7 [2])
COC(=O)[C@@H](N)CCCNC(=N)N[N+](=O)[O-] [L-NAME] | 58.4 µM | –

Reference: ChEMBL document CHEMBL4616662, “Cyperane-Type and Related (Nor)Sesquiterpenoids from the Root Bark of Acanthopanax gracilistylus and Their Inhibitory Effects on Nitric Oxide Production” (J Nat Prod, 2020)
